Results: patent publication US20160361391A1, “REDUCTION OF TRAF1 LEVELS COMBINED WITH NUTRIENT STRESS FOR TREATING LYMPHOCYTE-RELATED CANCERS” (THE GOVERNING COUNCIL OF THE UNIVERSITY OF TORONTO, priority 2014, published 2016)

What was measured:
Assay type in all cases: cell-based, human
TRAF1 [1] = test: TRAF1 levels by flow cytometry in knockdown RAJI; conditions: RAJI knockdown cells versus control sample
Text: (§1) (A) Whole cell extracts from RAJI cells treated with control shRNA (shCTRL) or TRAF2 shRNA (shTRAF2) were immunoblotted for TRAF2 or as a loading control, GAPDH. (B) Annexin V staining of RAJI after Erwinase treatment (1 IU/ml; 24 hrs) in shCTRL, shTRAF1 or shTRAF2 cells.
(§2) TRAF2 knockdown also decreases RAJI survival in the presence of Erwinase (FIG. 14). […] On the Y axis, is indicated knockdown of TRAF2, PKN1, TRAF1 or control sample. The vertical dashed line indicates the peak level of expression in the control sample for comparison with the knockdown cells.

Erk and NF-κB activation = test: Flow cytometry for pERK and phospho P65 subunit of NFkB; conditions: RAJI knockdown cells versus control sample
Text: as §1, §2

RAJI cells [2] = test: Annexin V / propidium iodide cell death by flow cytometry, RAJI; conditions: 1 IU/ml Erwinase
Experimental: RAJI cells stably expressing control shRNA (shCtrl), TRAF1 shRNA (shTRAF1) or PKN1 shRNA (shPKN1) were left untreated or treated with 1 IU/ml Erwinase for the indicated time points. For cells treated with Erwinase for longer than 24 hrs, cell culture media was replaced every 24 hrs and 1 IU/ml Erwinase was added to ensure the continued absence of glutamine. Cells were then stained with Annexin V-FITC (ebioscience) and Propidium Iodide (PI) and then analyzed by flow cytometry (BD LSR Fortessa). The upper right quadrant (Q2) indicates the fraction dead cells.
as §1
(§3) It was next asked what the effect of reducing TRAF1 and its signalling partner TRAF2 in lymphoma had on cell proliferation and survival. […] To determine whether this effect was due to death of the lymphoma cells, Annexin V and propidium iodide (PI) staining of the lymphomas were analyzed at different times after transfer to Erwinase containing medium. Annexin V binds to phosphatidyl serine, which becomes exposed on the surface of cells as they undergo apoptosis. Then, cells become permeable to propidium iodide upon death. […] The slightly greater effect on cell death of direct TRAF1 knockdown compared to PKN1 knockdown is consistent with the smaller effect of PKN1 knockdown on TRAF1 levels compared to direct TRAF1 knockdown with shTRAF1.

TRAF1 [3] = test: TRAF1 levels by Western blot after shRNA knockdown; conditions: RAJI and Daudi cells with shRNA to PKN1, versus shCtrl
Experimental: Left: RAJI cells were stably transfected with control small hairpin (sh) RNA or with shRNA designed to knockdown expression of TRAF1 (shRNAs obtained from Open Biosystems (TRC library number: TRCN0000056885 sequence: […]) (SEQ ID NO:1)). TRAF1 levels in RAJI expressing shCtrl or with shTRAF1 were analyzed by Western blot. Protein loading was analyzed based on GAPDH levels. Right: TRAF1 levels in B-chronic lymphocytic leukemia (CLL) lines and Daudi CD5+ (a Burkitt's lymphoma with CLL like properties) were determined by Western blot.
Left: Schematic diagram of TRAF1 indicating site of phosphorylation by PKN1 as identified by Kato et al.^29 Middle: RAJI cells were stably transfected with control shRNA (shCtrl), TRAF1 shRNA (shTRAF1) or PKN1 shRNA (shPKN1) (obtained from Open Biosystems (TRC library number: TRCN0000001484 sequence: […] (SEQ ID NO:2)). Right: Daudi cells were transduced with control shRNA (shCTRL), shRNA targeting TRAF1 (shTRAF1) or shRNA targeting PKN1 (shPKN1). Cells were analyzed for levels of TRAF1, tubulin or GAPDH by western blot. “Pool” refers to bulk transfected cell lines without subcloning.
Based on the finding that primary T cells lacking TRAF1 are sensitive to loss of TRAF2 when 4-1 BB signalling is induced during nutrient stress, the role of the reduction of TRAF1 levels combined with nutrient stress on B lymphomas was tested. […]

[4] = tested on: Chronic lymphocytic leukemia cell line MEC2; test: Annexin V / propidium iodide cell death by flow cytometry, MEC2; conditions: MEC2, 1 IU/ml Erwinase, 0, 18, 24 or 42 hrs
Experimental: MEC2 cells were transfected with control shRNA (shCTRL), shTRAF1 or shPKN1 and then were left untreated or treated with 1 IU/ml Erwinase for 0, 18, 24 or 42 hrs. Cell death was measured by flow cytometry for Annexin V and propidium iodide (PI), where double staining for Annexin V and Propidium iodide (PI) is used to indicate cell death.

TRAF2 = TRAF2 levels by immunoblot during nutrient stress; conditions: RAJI cells, 1 IU/ml Erwinase, up to 6 hrs
Experimental: (B) Wild type (WT), shCtrl or shTRAF1 RAJI cells were treated with 1 IU/ml Erwinase for 1, 3 or 6 hrs and immunoblotted for TRAF2 and TRAF1.
Right: RAJI cells stably expressing shCtrl or shPKN1 were treated with 1 IU/ml Erwinase for 0, 3 or 6 hrs and lysates were immunoblotted for TRAF2, or as a loading control, GAPDH.
To test the effect of lower levels of TRAF1 on the level of TRAF2 in lymphoma, WT and shTRAF1 RAJI cells were incubated under conditions of nutrient stress (low glutamine). […] In order to mimic conditions of nutrient stress in a manner that can be useful therapeutically, the licensed drug Erwinase (described above) was utilized. […] Of note, in contrast to the work with primary cells, the loss of TRAF2 when TRAF1 is limiting occurred without a need to add reagents to specifically engage a TNFR family member, but rather occurs spontaneously upon nutrient stress.

RAJI cells [5] = test: MTT cell viability / growth assay; conditions: for cell growth / proliferation with Erwinase (MTT): 1 IU/ml Erwinase
Experimental: MTT reagent was then solubilized with DMSO and absorbance was measured by ELISA plate reader at 560 nm and referenced to absorbance at 620 nm. Data are plotted as fold change relative to untreated shCtrl RAJI cells.
as §3
FIG. 7 provides a rationale for a screen for a PKN1 inhibitor that synergizes with Erwinase: In particular, the assay is used to look for inhibitors that act at nanomolar concentration to reduce cell survival. […] Inhibitors that reduce the signal in the MTT assay by at least 3 fold relative to Erwinase alone will be identified as potential PKN1 inhibitors. This initial screen is amenable to a 96 well plate assay in which each drug candidate is tested on control RAJI cells with and without Erwinase as well as shPKN1 RAJI cells with Erwinase. Candidate drugs that lower the signal on control RAJI cells only in the presence but not in the absence of Erwinase, and have no effect on PKN1 knockdown cells treated with Erwinase, represent candidates for kinase inhibitors that act through PKN1 inhibition to reduce TRAF1 levels. The candidates can then be verified by determining the inhibitory effects on TRAF1 levels.

[6] = tested on: panel of lymphoma and the CLL line MEC2; test: Erwinase sensitivity versus TRAF1 expression in cell line panel; conditions: 1 IU/ml Erwinase, 24 hours; lines with medium/hi TRAF1 expression
Experimental: Correlation plot of TRAF1 expression versus Erwinase sensitivity. Cell lines were treated with 1 IU/ml Erwinase for 24 hours and cell death was measured by AnnexinV/PI staining. Erwinase sensitivity is measured as % of cells AnnexinV^+, PI^+ and/or AnnexinV^+/PI^+ cells. Left: Erwinase sensitivity versus TRAF1 expression (measured by flow cytometry, gated on live cells) for a panel of lymphoma and the CLL line MEC2.
PKN1 stabilizes TRAF1 and TRAF1 serine 146, a target of PKN1 is required for TRAF1 stability (see above). As lowering TRAF1 by PKN1 knockdown increases sensitivity to nutrient stress, knockdown of PKN1 with RNA interference or anti-sense approaches, or inhibition of PKN1 using chemical inhibitors could be used to increase sensitivity to nutrient stress. In order to develop this strategy, biomarker needs to be developed to predict which cancers would be susceptible. To this end, TRAF1 protein expression was measured in a panel of human lymphomas and the CLL cell line MEC2 by flow cytometry and these levels were correlated with sensitivity to the nutrient stress-inducing drug Erwinase. […] However, in cells that express TRAF1 above an MFI of 1500, there was a strong correlation between TRAF1 levels and resistance to cell death induced by nutrient stress (FIG. 13). Cancers with these properties are candidates for therapy with PKN1 in combination with nutrient stress.

mTORC1 = test: pS6K / pS6 level as marker of mTORC1 activation; conditions: RAJI lymphoma cells
Text: Left: Levels of pS6K in RAJI control cells. Right: Levels of pS6K in RAJI shTRAF1. Upper panels show pS6K, lower panels show GAPDH to control for equal loading. B. Schematic showing link between nutrient stress, mTORC1 and pS6. C. Left: Representative flow cytometry analysis of TRAF1 and phospho-S6 expression in Raji shCTRL and Raji shTraf1 cells. […] FMO is fluorescence minus one control stain. Right: Correlation plot of TRAF1 versus phospho-S6 expression in lymphoma and CLL cell lines (gated on live cells). All flow cytometry is based on gating on live cells (using live/dead staining marker).
In an effort to understand the mechanism of synergy between lowering TRAF1 levels and increased sensitivity to Erwinase, the activity of mTORC1, a key sensor of the nutrient state of the cells, was examined. Nutrient stress inhibits the activation of mTORC1, a key regulator of proliferation, metabolism and cell survival.^35 PhosphoS6K (pS6K), a downstream target of mTORC1, can be used as a marker of mTORC1 activation. […] However, unexpectedly, TRAF1 knockdown cells had lower basal level of pS6K prior to treatment, perhaps explaining the synergistic effect of TRAF1 knockdown with Erwinase treatment (FIG. 11A—compare right to left western blots). […] Further, a correlation between the level of TRAF1 in the cell and the activity of mTORC1 as measured by pS6 levels was shown (FIG. 11C).

| Molecule | TRAF1 levels (flow cytometry) (TRAF1 [1]) | constitutive Erk and NF-κB activation (Erk and NF-κB activation) | sensitivity to Erwinase induced death (Annexin V/PI) (RAJI cells [2]) | TRAF1 levels (TRAF1 [3]) | sensitivity to Erwinase induced death (Annexin V/PI) [4] | TRAF2 levels during Erwinase treatment (TRAF2) | cell growth / proliferation with Erwinase (MTT) (RAJI cells [5]; RAJI) | tumour growth rate (MTT) (RAJI cells [5]; RAJI, complete culture medium, no Erwinase) | impact of Erwinase alone in MTT assay (RAJI cells [5]; control RAJI, 1 IU/ml, 48 hr) | Erwinase sensitivity (% AnnexinV+ and/or PI+ cells) versus TRAF1 expression [6] | level of pS6K / pS6 (mTORC1) |
| --- | --- | --- | --- | --- | --- | --- | --- | --- | --- | --- | --- |
| shTRAF2: shRNA to TRAF2, mature antisense ATGGCGTGGAATCTGCAAGGG | lowers TRAF1 levels | reduces constitutive Erk and NF-κB activation | increased susceptibility to Erwinase-mediated nutrient stress | – | – | – | – | – | – | – | – |
| shPKN1: shRNA targeting PKN1, sequence CTGATGTGTGAGAAGCGGA (Open Biosystems TRC library) | – | – | Increases the Sensitivity of RAJI to Erwinase Induced Death | decreases TRAF1 levels | increases the sensitivity of the Chronic lymphocytic leukemia cell line MEC2 to Erwinase induced death | sensitizes RAJI cells to TRAF2 loss during nutrient stress | sensitizes lymphoma to growth inhibition by Erwinase | no impact on the tumour growth rate | – | – | – |
| Erwinase: Licensed drug derived from the Asparaginase of Erwinia chrysanthemi; nutrient stress-inducing agent (protein, UniProt P06608 22-348, looked up) L-asparaginase: ADKLPNIVILATGGTIAGSAATGTQTTGYKAGALGVDTLINAVPEVKKLANVKGEQFSNMASENMTGDVVLKLSQRVNELLARDDVDGVVITHGTDTVEESAYFLHLTVKSDKPVVFVAAMRPATAISADGPMNLLEAVRVAGDKQSRGRGVMVVLNDRIGSARYITKTNASTLDTFKANEEGYLGVIIGNRIYYQNRIDKLHTTRSVFDVRGLTSLPKVDILYGYQDDPEYLYDAAIQHGVKGIVYAGMGAGSVSVRGIAGMRKAMEKGVVVIRSTRTGNGIVPPDEELPGLVSDSLNPAHARILLMLALTRTSDPKVIQEYFHTY | – | – | – | – | – | significant reduction in TRAF2 levels only when TRAF1 was reduced by shRNA | arrest in cell growth | – | minimal impact | inverse correlation between TRAF1 levels and Erwinase sensitivity | reduced the level of pS6K |
